In ChEMBL document CHEMBL3997770, “An overview of the binding models of FGFR tyrosine kinases in complex with small molecule inhibitors” (Eur J Med Chem, 2017):

Legend:
SNU-16 = assay: cells; details: Homo sapiens, SNU-16, 72 h
[1] = biological target: Fibroblast growth factor receptor 1 (Mus musculus, UniProt P16092); assay: Inhibition of FGF induced FGFR1 autophosphorylation in mouse NIH 3T3 cells preincubated for 5 mins followed by FGF-stimulation for 5 mins in presence of [gamma-32P]ATP by SDS-PAGE based autoradiography; format: cell-based
Chain of Fibroblast growth factor receptor 1 (Mus musculus, UniProt P16092) (P16092 whole entry, the tested form may be a part): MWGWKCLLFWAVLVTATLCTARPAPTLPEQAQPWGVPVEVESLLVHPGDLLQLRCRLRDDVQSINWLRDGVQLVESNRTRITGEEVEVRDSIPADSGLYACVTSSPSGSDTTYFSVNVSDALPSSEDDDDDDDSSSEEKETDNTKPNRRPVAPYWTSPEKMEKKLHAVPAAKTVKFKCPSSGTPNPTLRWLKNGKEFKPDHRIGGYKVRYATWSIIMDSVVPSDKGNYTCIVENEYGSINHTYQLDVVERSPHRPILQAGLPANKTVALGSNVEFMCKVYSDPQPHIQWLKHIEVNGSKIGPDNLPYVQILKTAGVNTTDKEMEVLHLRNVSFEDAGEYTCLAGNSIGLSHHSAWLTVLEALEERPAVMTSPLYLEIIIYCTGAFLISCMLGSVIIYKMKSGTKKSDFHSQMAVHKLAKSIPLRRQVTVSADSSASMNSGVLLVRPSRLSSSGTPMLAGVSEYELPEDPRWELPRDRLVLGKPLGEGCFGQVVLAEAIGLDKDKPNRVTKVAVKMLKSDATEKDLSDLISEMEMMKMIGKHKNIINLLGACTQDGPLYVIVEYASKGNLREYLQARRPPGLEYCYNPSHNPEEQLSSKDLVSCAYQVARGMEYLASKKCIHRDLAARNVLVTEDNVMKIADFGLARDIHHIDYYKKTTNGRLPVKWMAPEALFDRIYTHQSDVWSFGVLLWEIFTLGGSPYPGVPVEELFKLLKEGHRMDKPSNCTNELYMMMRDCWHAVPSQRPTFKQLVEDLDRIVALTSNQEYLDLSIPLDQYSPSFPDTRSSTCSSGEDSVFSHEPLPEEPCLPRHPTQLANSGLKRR

[2] = biological target: T1, Fibroblast growth factor receptor 1 (Homo sapiens, UniProt P11362); assay: Inhibition of FGFR1 kinase domain (unknown origin)
T1 sequence (P11362 whole entry, the tested form may be a part): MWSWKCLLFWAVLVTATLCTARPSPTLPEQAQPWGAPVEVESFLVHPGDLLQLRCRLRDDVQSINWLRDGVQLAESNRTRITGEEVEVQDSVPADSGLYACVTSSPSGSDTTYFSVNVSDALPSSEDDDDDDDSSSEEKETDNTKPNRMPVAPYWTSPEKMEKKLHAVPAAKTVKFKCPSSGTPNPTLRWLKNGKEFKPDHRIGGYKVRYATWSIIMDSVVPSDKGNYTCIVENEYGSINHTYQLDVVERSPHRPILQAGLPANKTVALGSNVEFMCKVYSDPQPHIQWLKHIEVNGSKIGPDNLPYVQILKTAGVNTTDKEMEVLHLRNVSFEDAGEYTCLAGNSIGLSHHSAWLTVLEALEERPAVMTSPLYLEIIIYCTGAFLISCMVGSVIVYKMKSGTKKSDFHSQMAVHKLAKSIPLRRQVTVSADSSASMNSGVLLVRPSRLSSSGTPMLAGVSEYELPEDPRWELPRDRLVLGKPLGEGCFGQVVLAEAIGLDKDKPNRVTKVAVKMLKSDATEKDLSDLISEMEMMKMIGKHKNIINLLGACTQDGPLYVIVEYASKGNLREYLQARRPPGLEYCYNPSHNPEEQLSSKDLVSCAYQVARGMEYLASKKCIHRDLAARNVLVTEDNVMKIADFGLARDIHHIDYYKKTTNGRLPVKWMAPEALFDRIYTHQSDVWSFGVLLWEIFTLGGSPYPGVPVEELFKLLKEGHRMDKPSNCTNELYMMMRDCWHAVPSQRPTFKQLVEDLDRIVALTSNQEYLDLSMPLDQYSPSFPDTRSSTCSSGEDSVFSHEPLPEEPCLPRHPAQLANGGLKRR

[3] = biological target: T1, Fibroblast growth factor receptor 1; assay: Inhibition of FGFR1 (unknown origin)
[4] = biological target: Fibroblast growth factor receptor 3 (Homo sapiens, UniProt P22607); assay: Inhibition of FGFR3 (unknown origin)
Chain of Fibroblast growth factor receptor 3 (P22607 whole entry): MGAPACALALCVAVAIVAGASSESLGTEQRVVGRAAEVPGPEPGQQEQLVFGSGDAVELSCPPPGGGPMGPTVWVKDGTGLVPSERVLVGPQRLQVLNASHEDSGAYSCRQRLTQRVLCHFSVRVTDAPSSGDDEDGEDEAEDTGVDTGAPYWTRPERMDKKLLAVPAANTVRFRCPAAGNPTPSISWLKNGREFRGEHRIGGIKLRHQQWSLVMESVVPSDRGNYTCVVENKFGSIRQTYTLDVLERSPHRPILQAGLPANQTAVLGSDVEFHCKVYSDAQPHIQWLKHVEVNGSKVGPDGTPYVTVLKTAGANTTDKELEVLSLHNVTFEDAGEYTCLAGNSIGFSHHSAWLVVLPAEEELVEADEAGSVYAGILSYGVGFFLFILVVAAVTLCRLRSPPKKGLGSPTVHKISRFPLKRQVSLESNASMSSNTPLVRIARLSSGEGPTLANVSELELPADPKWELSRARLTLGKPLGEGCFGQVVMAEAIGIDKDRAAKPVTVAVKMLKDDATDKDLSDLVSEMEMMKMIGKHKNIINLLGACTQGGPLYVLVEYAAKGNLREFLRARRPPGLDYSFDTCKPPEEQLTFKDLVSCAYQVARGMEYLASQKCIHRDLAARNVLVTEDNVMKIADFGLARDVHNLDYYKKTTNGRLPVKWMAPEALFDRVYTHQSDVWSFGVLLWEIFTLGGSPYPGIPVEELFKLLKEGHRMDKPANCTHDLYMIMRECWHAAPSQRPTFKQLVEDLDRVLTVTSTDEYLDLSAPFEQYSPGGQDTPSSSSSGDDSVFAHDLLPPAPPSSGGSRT

[5] = biological target: Fibroblast growth factor receptor 2 (Homo sapiens, UniProt P21802, V564M); assay: Inhibition of FGFR2 V564M mutant (unknown origin)
Chain of Fibroblast growth factor receptor 2 (Homo sapiens, UniProt P21802, V564M) (P21802 22-821 V564M limits assumed): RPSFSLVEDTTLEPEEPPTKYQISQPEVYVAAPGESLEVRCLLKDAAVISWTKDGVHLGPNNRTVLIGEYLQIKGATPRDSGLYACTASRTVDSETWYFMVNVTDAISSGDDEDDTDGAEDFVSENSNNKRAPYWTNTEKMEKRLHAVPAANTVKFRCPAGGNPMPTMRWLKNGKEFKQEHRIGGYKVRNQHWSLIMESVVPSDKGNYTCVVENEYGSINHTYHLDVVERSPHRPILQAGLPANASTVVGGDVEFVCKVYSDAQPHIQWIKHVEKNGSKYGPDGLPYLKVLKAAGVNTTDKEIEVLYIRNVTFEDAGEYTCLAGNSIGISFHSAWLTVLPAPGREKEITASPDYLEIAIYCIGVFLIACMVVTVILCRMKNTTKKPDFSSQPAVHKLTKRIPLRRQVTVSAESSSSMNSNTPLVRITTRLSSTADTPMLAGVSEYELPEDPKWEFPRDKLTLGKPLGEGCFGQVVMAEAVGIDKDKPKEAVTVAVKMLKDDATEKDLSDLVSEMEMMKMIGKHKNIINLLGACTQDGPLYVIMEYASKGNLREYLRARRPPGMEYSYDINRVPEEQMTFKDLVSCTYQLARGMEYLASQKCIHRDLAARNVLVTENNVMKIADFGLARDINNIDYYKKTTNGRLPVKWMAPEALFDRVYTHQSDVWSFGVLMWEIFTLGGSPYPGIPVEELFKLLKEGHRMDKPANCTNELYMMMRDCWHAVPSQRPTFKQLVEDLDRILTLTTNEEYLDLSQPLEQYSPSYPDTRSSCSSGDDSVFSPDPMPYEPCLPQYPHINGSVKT

[6] = biological target: T2, Fibroblast growth factor receptor 4 (Homo sapiens, UniProt P22455); assay: Inhibition of FGFR4 (unknown origin)
T2 sequence (P22455 whole entry): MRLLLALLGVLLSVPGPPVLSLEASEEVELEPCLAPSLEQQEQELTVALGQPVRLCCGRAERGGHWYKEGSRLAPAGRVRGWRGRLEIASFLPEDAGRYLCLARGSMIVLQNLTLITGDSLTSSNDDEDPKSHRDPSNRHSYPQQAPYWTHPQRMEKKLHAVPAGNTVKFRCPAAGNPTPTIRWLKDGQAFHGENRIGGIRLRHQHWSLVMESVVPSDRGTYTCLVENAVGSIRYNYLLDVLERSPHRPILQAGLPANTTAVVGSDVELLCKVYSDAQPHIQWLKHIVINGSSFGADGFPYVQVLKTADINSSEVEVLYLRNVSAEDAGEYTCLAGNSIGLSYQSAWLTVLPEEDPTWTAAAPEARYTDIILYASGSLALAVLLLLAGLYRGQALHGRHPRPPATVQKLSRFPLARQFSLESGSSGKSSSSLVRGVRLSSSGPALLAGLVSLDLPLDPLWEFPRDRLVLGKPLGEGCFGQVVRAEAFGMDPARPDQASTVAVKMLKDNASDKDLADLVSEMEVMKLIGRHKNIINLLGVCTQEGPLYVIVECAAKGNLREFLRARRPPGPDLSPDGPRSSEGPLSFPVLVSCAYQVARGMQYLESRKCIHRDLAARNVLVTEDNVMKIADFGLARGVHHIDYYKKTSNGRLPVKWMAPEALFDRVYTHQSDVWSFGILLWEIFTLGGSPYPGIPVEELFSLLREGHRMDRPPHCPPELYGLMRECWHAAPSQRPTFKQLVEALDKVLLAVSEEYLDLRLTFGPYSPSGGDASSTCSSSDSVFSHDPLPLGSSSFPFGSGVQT

[7] = biological target: T3, Fibroblast growth factor receptor 2 (Homo sapiens, UniProt P21802); assay: Inhibition of FGFR2 (unknown origin)
T3 sequence (P21802 whole entry): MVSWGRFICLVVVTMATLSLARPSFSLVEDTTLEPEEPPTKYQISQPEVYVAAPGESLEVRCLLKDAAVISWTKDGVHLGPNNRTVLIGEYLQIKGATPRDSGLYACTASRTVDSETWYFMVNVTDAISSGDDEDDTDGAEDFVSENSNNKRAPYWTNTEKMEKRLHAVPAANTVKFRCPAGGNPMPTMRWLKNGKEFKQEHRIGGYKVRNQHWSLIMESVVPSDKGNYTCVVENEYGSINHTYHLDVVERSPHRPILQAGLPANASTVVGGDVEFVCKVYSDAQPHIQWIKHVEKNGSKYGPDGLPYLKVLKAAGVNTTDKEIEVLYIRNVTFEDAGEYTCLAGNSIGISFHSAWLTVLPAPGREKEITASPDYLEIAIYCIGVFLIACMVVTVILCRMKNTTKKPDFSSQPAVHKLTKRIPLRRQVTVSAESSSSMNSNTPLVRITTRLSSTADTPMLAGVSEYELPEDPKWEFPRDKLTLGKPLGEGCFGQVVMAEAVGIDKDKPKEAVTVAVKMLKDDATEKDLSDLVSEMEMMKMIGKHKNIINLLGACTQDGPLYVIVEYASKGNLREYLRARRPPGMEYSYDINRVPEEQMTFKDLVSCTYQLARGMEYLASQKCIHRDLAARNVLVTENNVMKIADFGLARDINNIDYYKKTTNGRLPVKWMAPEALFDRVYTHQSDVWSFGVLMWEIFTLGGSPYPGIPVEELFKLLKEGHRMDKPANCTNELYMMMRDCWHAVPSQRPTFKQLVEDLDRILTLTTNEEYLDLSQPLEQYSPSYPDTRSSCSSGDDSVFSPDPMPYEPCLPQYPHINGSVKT

[8] = biological target: Epidermal growth factor receptor (Homo sapiens, UniProt P00533, L858R); assay: Inhibition of EGFR L858R mutant (unknown origin)
[9] = biological target: T1, Fibroblast growth factor receptor 1; assay: Inhibition of recombinant His6-tagged FGFR1 (unknown origin) expressed in Escherichia coli BL21(DE3)-RILP using peptidic substrate by ELISA
[10] = biological target: T3, Fibroblast growth factor receptor 2; assay: Inhibition of recombinant His6-tagged FGFR2 (unknown origin) expressed in Escherichia coli BL21(DE3)-RILP using peptidic substrate by ELISA
[11] = biological target: T2, Fibroblast growth factor receptor 4; assay: Inhibition of human N-terminal GST-tagged FGFR4 cytoplasmic domain (460 to 802 end residues) expressed in baculovirus expression system using CSKtide as substrate after 90 mins

Q: Which IC50 (SNU-16) does the source give for `CCN1CCN(c2ccc(C(=O)Nc3n[nH]c4cc(-c5cccc(OC)c5F)ccc34)cc2)CC1` here?
A: 40.5 nM

Q: `CCN1CCN(c2ccc(C(=O)Nc3n[nH]c4cc(-c5cccc(OC)c5)ccc34)cc2)CC1` was tested. Which IC50 (SNU-16) did it give?
A: 642 nM

Q: Which results are given for `O=CN1CCN(c2ccc(/C=C3\C(=O)Nc4ccccc43)cc2)CC1`?
A: IC50 [1]: 20000 to 40000 nM; IC50 [2]: 10000 to 20000 nM

Q: Which results are given for `C=CC(=O)Nc1ccc(CN(C(=O)Nc2c(Cl)c(OC)cc(OC)c2Cl)c2cc(Nc3ccc(N4CCN(C)CC4)cc3)ncn2)cc1`?
A: EC50 [3]: 1 nM; IC50 [4]: 41 nM; IC50 [5]: 64 nM; IC50 [6]: 22 nM; IC50 [7]: < 1 nM; IC50 [8]: 16.8 nM

Q: For `C=CC(=O)Nc1ccc(CN2C(=O)N(c3cc(OC)cc(OC)c3)Cc3cnc(Nc4ccc(N5CCN(C)CC5)cc4)nc32)cc1`, which EC50 [3] is on record?
A: 1 nM

Q: And the IC50 [4]?
A: 93 nM

Q: What about the IC50 [5] of the same compound?
A: 58 nM

Q: And the IC50 [6]?
A: 32 nM

Q: What about the IC50 [7] of the same compound?
A: 4 nM

Q: What does the source list for `Cc1c[nH]c(/C=C2\C(=O)Nc3ccccc32)c1CCC(=O)O`?
A: IC50 [1]: 10000 to 20000 nM; IC50 [2]: 10000 to 20000 nM

Q: Which IC50 [9] does the source give for `Nc1ncc2c(n1)-c1ccccc1[C@H](c1ccccc1)C2` here?
A: 840 nM

Q: And the IC50 [10]?
A: 1230 nM

Q: With `C=CC(N)=O` [ACRYLAMIDE] as the compound, how does the IC50 [11] read?
A: 938 nM
